Reference: ChEMBL document CHEMBL3991601, “The target landscape of clinical kinase drugs” (Science, 2017)
Activity calls are given as the source filed them.

Key:
[1] = molecular target: Actin-related protein 2 (Homo sapiens, UniProt P61160)
[2] = molecular target: Chromodomain-helicase-DNA-binding protein 4 (Homo sapiens, UniProt Q14839)
[3] = molecular target: T1, Dual specificity mitogen-activated protein kinase kinase 6 (Homo sapiens, UniProt P52564)
T1 sequence (P52564 whole entry): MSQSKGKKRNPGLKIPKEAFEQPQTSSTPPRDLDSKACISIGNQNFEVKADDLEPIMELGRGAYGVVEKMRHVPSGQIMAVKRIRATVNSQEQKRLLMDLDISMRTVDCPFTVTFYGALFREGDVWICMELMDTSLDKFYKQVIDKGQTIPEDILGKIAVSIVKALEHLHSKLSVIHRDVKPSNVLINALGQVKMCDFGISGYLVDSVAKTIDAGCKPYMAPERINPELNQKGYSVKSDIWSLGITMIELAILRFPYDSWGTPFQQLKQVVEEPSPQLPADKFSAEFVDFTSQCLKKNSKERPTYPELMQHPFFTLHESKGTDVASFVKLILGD

[4] = molecular target: T2, Ribosyldihydronicotinamide dehydrogenase [quinone] (Homo sapiens, UniProt P16083)
T2 sequence (P16083 whole entry): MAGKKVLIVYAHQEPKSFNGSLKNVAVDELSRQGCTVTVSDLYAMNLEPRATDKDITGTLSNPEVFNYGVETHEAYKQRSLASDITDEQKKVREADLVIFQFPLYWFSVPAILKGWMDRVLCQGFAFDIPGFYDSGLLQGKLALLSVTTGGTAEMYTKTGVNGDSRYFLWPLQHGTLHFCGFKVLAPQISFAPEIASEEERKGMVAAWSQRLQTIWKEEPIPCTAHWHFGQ

[5] = molecular target: T3, Bifunctional phosphoribosylaminoimidazole carboxylase/phosphoribosylaminoimidazole succinocarboxamide synthetase (Homo sapiens, UniProt P22234)
T3 sequence (P22234 whole entry): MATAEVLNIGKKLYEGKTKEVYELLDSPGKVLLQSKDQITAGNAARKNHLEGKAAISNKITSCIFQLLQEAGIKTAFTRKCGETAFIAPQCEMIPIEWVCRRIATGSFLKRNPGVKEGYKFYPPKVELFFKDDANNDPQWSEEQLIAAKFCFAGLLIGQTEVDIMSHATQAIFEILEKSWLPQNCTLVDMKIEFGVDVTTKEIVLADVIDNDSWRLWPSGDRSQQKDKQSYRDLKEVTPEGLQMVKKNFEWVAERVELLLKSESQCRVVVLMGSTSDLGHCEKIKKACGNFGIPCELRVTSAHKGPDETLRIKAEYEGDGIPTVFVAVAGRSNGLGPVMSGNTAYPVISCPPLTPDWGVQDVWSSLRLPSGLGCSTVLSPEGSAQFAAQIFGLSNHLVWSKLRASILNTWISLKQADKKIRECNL

[6] = molecular target: T4, Succinate--CoA ligase [ADP-forming] subunit beta, mitochondrial (Homo sapiens, UniProt Q9P2R7)
T4 sequence (Q9P2R7 whole entry): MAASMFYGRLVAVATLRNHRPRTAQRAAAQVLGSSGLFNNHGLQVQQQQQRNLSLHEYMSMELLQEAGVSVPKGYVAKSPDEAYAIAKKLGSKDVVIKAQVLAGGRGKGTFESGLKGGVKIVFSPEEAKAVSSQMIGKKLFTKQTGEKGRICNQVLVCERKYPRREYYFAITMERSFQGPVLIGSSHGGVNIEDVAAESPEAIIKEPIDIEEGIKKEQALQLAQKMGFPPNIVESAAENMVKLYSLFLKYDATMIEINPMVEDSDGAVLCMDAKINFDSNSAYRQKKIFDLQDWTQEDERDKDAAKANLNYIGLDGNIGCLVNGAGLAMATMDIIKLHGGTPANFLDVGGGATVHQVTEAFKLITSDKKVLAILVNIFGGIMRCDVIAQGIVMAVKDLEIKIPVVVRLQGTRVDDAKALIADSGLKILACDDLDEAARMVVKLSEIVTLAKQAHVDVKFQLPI

[7] = molecular target: T5, Serine/threonine-protein kinase ULK1 (Homo sapiens, UniProt O75385)
T5 sequence (O75385 whole entry): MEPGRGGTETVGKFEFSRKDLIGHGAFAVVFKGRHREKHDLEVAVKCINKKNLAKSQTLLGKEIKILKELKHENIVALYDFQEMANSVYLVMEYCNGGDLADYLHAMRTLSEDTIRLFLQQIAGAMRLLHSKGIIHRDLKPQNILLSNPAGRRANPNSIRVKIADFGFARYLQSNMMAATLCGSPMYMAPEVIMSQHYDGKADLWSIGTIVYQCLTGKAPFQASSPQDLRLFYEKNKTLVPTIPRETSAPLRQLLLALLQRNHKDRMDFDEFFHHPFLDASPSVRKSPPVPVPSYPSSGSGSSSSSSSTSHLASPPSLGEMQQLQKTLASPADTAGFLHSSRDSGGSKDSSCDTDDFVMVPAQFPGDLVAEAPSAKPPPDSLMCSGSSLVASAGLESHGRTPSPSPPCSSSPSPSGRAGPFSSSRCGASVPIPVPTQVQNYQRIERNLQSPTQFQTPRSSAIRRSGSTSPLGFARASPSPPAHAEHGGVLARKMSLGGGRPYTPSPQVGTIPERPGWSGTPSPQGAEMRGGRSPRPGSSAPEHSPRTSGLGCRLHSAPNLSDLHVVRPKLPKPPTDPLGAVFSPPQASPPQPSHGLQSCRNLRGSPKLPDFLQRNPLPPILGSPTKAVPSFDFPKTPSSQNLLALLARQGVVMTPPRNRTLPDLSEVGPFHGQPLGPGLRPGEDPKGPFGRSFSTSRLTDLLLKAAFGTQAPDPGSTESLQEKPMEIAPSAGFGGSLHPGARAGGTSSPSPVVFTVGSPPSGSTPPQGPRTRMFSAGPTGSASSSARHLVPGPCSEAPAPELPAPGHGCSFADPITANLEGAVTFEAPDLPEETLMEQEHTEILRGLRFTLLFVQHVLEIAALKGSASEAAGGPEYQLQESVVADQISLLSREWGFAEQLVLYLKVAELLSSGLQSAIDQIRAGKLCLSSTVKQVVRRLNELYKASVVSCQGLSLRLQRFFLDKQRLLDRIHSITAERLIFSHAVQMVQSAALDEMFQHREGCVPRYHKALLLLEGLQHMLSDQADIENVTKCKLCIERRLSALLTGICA
Further: in the data inactive means no Kd found up to 30 µM.

Chromodomain-helicase-DNA-binding protein 4, sequence (Q14839 whole entry): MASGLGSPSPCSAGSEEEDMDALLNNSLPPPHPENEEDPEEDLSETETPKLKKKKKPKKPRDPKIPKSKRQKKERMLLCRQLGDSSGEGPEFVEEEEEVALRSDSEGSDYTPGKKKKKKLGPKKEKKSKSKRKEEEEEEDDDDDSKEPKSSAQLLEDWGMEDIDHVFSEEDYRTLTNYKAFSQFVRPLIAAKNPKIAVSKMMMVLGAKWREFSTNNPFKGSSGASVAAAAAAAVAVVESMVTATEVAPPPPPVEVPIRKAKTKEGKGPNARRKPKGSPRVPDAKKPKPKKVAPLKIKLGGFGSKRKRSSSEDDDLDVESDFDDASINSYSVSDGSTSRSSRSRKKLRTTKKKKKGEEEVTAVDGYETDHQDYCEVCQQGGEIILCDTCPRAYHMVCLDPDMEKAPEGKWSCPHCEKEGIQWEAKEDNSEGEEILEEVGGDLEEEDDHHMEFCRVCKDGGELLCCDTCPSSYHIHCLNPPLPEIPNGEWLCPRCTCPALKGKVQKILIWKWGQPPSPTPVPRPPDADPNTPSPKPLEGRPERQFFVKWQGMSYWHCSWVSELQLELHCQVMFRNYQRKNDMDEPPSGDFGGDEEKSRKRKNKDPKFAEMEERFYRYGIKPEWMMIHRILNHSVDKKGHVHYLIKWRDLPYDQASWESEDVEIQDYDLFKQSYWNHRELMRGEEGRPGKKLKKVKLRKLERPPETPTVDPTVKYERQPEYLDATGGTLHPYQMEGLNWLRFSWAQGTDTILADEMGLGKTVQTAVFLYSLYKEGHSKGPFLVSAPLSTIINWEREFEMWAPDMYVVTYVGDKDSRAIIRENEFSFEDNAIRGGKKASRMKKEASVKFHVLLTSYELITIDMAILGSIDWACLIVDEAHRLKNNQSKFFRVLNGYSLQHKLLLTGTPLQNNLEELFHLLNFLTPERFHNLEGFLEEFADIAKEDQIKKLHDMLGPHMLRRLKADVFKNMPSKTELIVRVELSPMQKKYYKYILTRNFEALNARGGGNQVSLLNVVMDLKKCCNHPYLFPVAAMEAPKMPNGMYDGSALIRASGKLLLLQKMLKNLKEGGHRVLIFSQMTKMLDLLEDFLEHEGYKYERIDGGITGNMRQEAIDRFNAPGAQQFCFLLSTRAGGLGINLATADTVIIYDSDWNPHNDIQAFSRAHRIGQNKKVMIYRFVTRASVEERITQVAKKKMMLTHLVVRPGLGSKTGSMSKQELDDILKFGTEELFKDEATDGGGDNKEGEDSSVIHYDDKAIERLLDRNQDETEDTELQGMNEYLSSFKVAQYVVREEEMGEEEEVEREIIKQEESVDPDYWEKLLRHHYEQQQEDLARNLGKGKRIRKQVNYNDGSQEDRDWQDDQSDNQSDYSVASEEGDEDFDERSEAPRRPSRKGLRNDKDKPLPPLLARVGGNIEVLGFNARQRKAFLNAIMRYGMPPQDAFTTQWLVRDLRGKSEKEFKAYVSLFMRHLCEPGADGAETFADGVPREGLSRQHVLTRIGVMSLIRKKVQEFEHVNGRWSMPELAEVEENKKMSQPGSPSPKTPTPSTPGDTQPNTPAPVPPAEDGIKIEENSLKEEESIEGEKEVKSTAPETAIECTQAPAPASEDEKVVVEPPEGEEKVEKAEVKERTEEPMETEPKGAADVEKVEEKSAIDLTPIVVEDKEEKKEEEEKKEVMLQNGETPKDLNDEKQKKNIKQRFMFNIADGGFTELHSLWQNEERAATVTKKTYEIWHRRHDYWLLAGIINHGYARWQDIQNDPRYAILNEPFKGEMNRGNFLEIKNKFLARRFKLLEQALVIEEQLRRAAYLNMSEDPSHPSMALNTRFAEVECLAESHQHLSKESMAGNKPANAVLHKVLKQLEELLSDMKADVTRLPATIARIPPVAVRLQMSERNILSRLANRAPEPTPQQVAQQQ

| Kd [1] | Kd [2] | Kd [3] | Kd [4] | Kd [5] | Kd [6] | Kd [7] | Structure (SMILES) |
| --- | --- | --- | --- | --- | --- | --- | --- |
| > 30 µM (inactive) | > 30 µM (inactive) | > 30 µM (inactive) | > 30 µM (inactive) | > 30 µM (inactive) | > 30 µM (inactive) | > 30 µM (inactive) | C=CC(=O)Nc1cccc(Nc2nc(Nc3ccc(N4CCN(C(C)=O)CC4)cc3OC)ncc2C(F)(F)F)c1 [ROCILETINIB] |
| > 30 µM (inactive) | > 30 µM (inactive) | > 30 µM (inactive) | > 30 µM (inactive) | > 30 µM (inactive) | > 30 µM (inactive) | > 30 µM (inactive) | C[C@@H]1COC(Nc2ccc3ncnc(Nc4ccc(OCc5nccs5)c(Cl)c4)c3c2)=N1 [VARLITINIB] |
| > 30 µM (inactive) | > 30 µM (inactive) | > 30 µM (inactive) | > 30 µM (inactive) | > 30 µM (inactive) | > 30 µM (inactive) | > 30 µM (inactive) | COc1cc2nccc(Oc3ccc(NC(=O)C4(C(=O)Nc5ccc(F)cc5)CC4)cc3)c2cc1OC [CABOZANTINIB] |
| > 30 µM (inactive) | > 30 µM (inactive) | > 30 µM (inactive) | > 30 µM (inactive) | > 30 µM (inactive) | > 30 µM (inactive) | > 30 µM (inactive) | CCN(CCCOc1ccc2c(Nc3cc(CC(=O)Nc4cccc(F)c4)n[nH]3)ncnc2c1)CCOP(=O)(O)O [BARASERTIB] |
| > 30 µM (inactive) | > 30 µM (inactive) | > 30 µM (inactive) | > 30 µM (inactive) | > 30 µM (inactive) | > 30 µM (inactive) | 3.66 µM (active) | O=C(O)c1ccc2c(c1)nc(Nc1cccc(Cl)c1)c1ccncc12 [SILMITASERTIB] |
| > 30 µM (inactive) | > 30 µM (inactive) | > 30 µM (inactive) | > 30 µM (inactive) | > 30 µM (inactive) | > 30 µM (inactive) | > 30 µM (inactive) | COc1cc2ncnc(Nc3ccc(F)c(Cl)c3)c2cc1NC(=O)/C=C/CN1CCCCC1 [DACOMITINIB ANHYDROUS] |

The remaining lines, values behind:

| Structure (SMILES) | Kd [1] | Kd [2] | Kd [3] | Kd [4] | Kd [5] | Kd [6] | Kd [7] |
| --- | --- | --- | --- | --- | --- | --- | --- |
| COc1cccc2cc(-c3nc([C@H]4CC[C@H](C(=O)O)CC4)n4ncnc(N)c34)[nH]c12 [OSI-027] | > 30 µM (inactive) | > 30 µM (inactive) | > 30 µM (inactive) | 1.39 µM (active) | > 30 µM (inactive) | > 30 µM (inactive) | > 30 µM (inactive) |
| O=S(=O)(c1cccc2c(O)nccc12)N1CCCNCC1 [HYDROXYFASUDIL] | > 30 µM (inactive) | > 30 µM (inactive) | > 30 µM (inactive) | > 30 µM (inactive) | > 30 µM (inactive) | > 30 µM (inactive) | 23.3 µM (active) |
| COCCN1CCN(Cc2ccc(-c3n[nH]c4c3C(=O)c3c(NC(=O)NN5CCOCC5)cccc3-4)cc2)CC1 [RGB-286638] | > 30 µM (inactive) | > 30 µM (inactive) | 1.95 µM (active) | > 30 µM (inactive) | > 30 µM (inactive) | > 30 µM (inactive) | > 30 µM (inactive) |
| CCc1cc2c(cc1N1CCC(N3CCOCC3)CC1)C(C)(C)c1[nH]c3cc(C#N)ccc3c1C2=O [ALECTINIB] | > 30 µM (inactive) | > 30 µM (inactive) | > 30 µM (inactive) | > 30 µM (inactive) | > 30 µM (inactive) | > 30 µM (inactive) | > 30 µM (inactive) |
| COc1cc(Nc2ncc(F)c(Nc3ccc4c(n3)N(COP(=O)(O)O)C(=O)C(C)(C)O4)n2)cc(OC)c1OC [FOSTAMATINIB] | > 30 µM (inactive) | > 30 µM (inactive) | > 30 µM (inactive) | > 30 µM (inactive) | > 30 µM (inactive) | > 30 µM (inactive) | > 30 µM (inactive) |
| Cc1ccc(C(=O)Nc2ccc(Oc3cc4cnn(C)c4cc3-c3cn[nH]c3)c(F)c2)c(=O)n1-c1ccc(F)cc1 [MERESTINIB] | > 30 µM (inactive) | > 30 µM (inactive) | > 30 µM (inactive) | > 30 µM (inactive) | > 30 µM (inactive) | > 30 µM (inactive) | > 30 µM (inactive) |
| CNC(=O)c1cccc(-c2ccc3c(N4CCOC[C@@H]4C)nc(N4CCOC[C@@H]4C)nc3n2)c1 [VISTUSERTIB] | > 30 µM (inactive) | > 30 µM (inactive) | > 30 µM (inactive) | > 30 µM (inactive) | > 30 µM (inactive) | > 30 µM (inactive) | > 30 µM (inactive) |
| S=C(NCc1ccc2c(c1)OCO2)N1CCN(c2ncnc3c2oc2ccccc23)CC1 [AMUVATINIB] | > 30 µM (inactive) | > 30 µM (inactive) | > 30 µM (inactive) | > 30 µM (inactive) | > 30 µM (inactive) | > 30 µM (inactive) | > 30 µM (inactive) |
| COc1ccc(-c2ccc3ncc4c(c3c2)n(-c2ccc(N3CCNCC3)c(C(F)(F)F)c2)c(=O)n4C)cn1 [BGT-226 FREE BASE] | > 30 µM (inactive) | > 30 µM (inactive) | > 30 µM (inactive) | > 30 µM (inactive) | > 30 µM (inactive) | > 30 µM (inactive) | > 30 µM (inactive) |
| C=CC(=O)Nc1cc(Nc2nccc(-c3cn(C)c4ccccc34)n2)c(OC)cc1N(C)CCN(C)C [OSIMERTINIB] | > 30 µM (inactive) | > 30 µM (inactive) | > 30 µM (inactive) | 3.66 µM (active) | > 30 µM (inactive) | > 30 µM (inactive) | > 30 µM (inactive) |
| Cc1c(Cn2c(C)nc3c(C(=O)O)cc(N4CCOCC4)cc32)cccc1C(F)(F)F [GSK-2636771] | > 30 µM (inactive) | > 30 µM (inactive) | > 30 µM (inactive) | > 30 µM (inactive) | > 30 µM (inactive) | > 30 µM (inactive) | > 30 µM (inactive) |
| COc1ccc2c(OCc3nnc4ccc(-c5ccccc5)nn34)ccnc2c1 [AMG-208] | > 30 µM (inactive) | > 30 µM (inactive) | > 30 µM (inactive) | > 30 µM (inactive) | > 30 µM (inactive) | > 30 µM (inactive) | > 30 µM (inactive) |
